Where two headings read alike, the source gives them in different places. Marks after values point to notes of the source that are not given here.
What was measured:
[1] = Optical properties of the CypH dyes: absorbance maximum and extinction coefficient in EtOH (Table 1); type: physicochemical; conditions: for Ex Coeff (M^−1cm^−1) @ Abs Max: at absorbance maximum
Method: (§1) Characterization: All new CypH dyes were characterized by proton NMR and mass spectrometry to confirm identity. NMR data was consistent with the structure and mass spectrometry results gave the expected mass of the dye±0.5 amu. An HPLC method was developed (see below) and used to assess dye purity. […] Retention times on the column generally correlated with lipophilicity of the dyes with water soluble dyes containing sulfate groups eluting out earlier (@10.6 min for CypH-3, 6, 9) than CypH-1 (@11.9 min) and the more lipophilic dyes later. Optical properties of the dyes, acid dissociation constants and solubilities were also determined. Synthetic intermediates were also characterized by proton NMR.

[2] = Fluorescence properties of the CypH dyes at pH 5.0 and pH 7.5 (Table 2); type: physicochemical; conditions: for Ratio Intensity pH 5.0/7.5: fluorescence intensity pH 5.0 over pH 7.5
Source text: The excitation and emission maxima of CypH-1 are 760 and 777 nm, respectively. The signal intensity ratio of pH 5 over pH 7.5 was about 10. The meso-bridge ring size, lipophilicity and electro-density of CypH-1 was modified to provide better optical property. […] The best compound from this group was CypH-5 whose fluorescence ratio of pH 5.0/pH 7.5 was increased to 22. Based on this initial structure and property relationship, the second round of 10 new analogs were designed using CypH-5 as the core, focusing on modifying the electron density on the aniline ring and the indolinium ring. Various alkyl groups, such as methyl, ethyl, propyl, isopropyl and their combinations, were applied to these two positions.
The CypH analogs with other longer alkyl chains had much lower background fluorescence. […] Among them, CypH-11, which has a methyl isopropyl aniline and an isopropyl group on the indolinium ring, gave a 112-fold enhancement in fluorescence signal. CypH-11 has absorbance and emission maxima at 766 nm and 785 nm, respectively (FIG. 4) and was selected as the lead compound (vide infra).

[3] = Solubility of the CypH dyes (Table 1); type: physicochemical
Method: as §1

[4] = in water; cited from earlier work
[5] = organic solvent or mixture, in EtOH, read-out: Solubility

| Ex Coeff (M^−1cm^−1) @ Abs Max [1] | Abs. Max (nm) in EtOH [1] | Ratio Intensity pH 5.0/7.5 [2] | FL Intensity pH 5.0 [2] | FL Max (nm) pH 5.0 [2] | FL Intensity pH 7.5 [2] | FL Max (nm) pH 7.5 [2] | Solubility [3, 5] | Solubility ([3]; in EtOH) | Ratio Intensity pH 5.0/7.5 ([2]; listed as 5) | Solubility ([3]; in H2O) | SMILES | quantum yield (Φ) of standard compound [4] |
| --- | --- | --- | --- | --- | --- | --- | --- | --- | --- | --- | --- | --- |
| 139,100 M^−1cm^−1 | 764 nm | 30.6 | 4254 | 787 nm | 139 | 786 nm | > 1000 µM | – | – | – | CCN1/C(=C/C=C2\CCCC(/C=C/C3=[N+](CC)c4ccccc4C3(C)C)=C2Oc2ccc(N(C)C)cc2)C(C)(C)c2ccccc21 [CypH-2] | – |
| 58,000 M^−1cm^−1 | 775 nm | 23.2 | 1924 | 801 nm | 83 | 790 nm | – | >1 mM in | – | – | CN(C)c1ccc(OC2=C(/C=C/C3=[N+](C)c4ccccc4C3(C)C)CC/C2=C\C=C2\N(C)c3ccccc3C2(C)C)cc1.[Cl-] [CypH-4] | – |
| 134,000 M^−1cm^−1 | 762 nm | 22 | 5089 | 786 nm | 227 | 787 nm | > 1000 µM | – | 22.4 | – | CCN(C)c1ccc(OC2=C(/C=C/C3=[N+](C)c4ccccc4C3(C)C)CCC/C2=C\C=C2\N(C)c3ccccc3C2(C)C)cc1 [CypH-5] | – |
| 150,400 M^−1cm^−1 | 768# nm | 10.8 | 4359 | 789 nm | 405 | 791 nm | – | – | – | >1 mM in | CCN(C)c1ccc(OC2=C(/C=C/C3=[N+](CCCS(=O)(=O)[O-])c4ccccc4C3(C)C)CCC/C2=C\C=C2\N(CCCS(=O)(=O)[O-])c3ccccc3C2(C)C)cc1.[Na+] [CypH-6] | – |
| 179,500 M^−1cm^−1 | 764 nm | 27.8 | 5681 | 788 nm | 204 | 786 nm | > 1000 µM | – | – | – | CCN(C)c1ccc(OC2=C(/C=C/C3=[N+](CC)c4ccccc4C3(C)C)CCC/C2=C\C=C2\N(CC)c3ccccc3C2(C)C)cc1 [CypH-7] | – |
| 72,700 M^−1cm^−1 | 777 nm | 41.4 | 2816 | 801 nm | 68 | 791 nm | – | >1 mM in | – | – | CCN(C)c1ccc(OC2=C(/C=C/C3=[N+](C)c4ccccc4C3(C)C)CC/C2=C\C=C2\N(C)c3ccccc3C2(C)C)cc1.[Cl-] [CypH-8] | – |
| 176,300 M^−1cm^−1 | 769# nm | 5.3 | 5125 | 793 nm | 972 | 789 nm | – | – | – | >1 mM in | CC(C)N(C)c1ccc(OC2=C(/C=C/C3=[N+](CCCS(=O)(=O)[O-])c4ccccc4C3(C)C)CCC/C2=C\C=C2\N(CCCS(=O)(=O)[O-])c3ccccc3C2(C)C)cc1.[Na+] [CypH-9] | – |
| 175,400 M^−1cm^−1 | 765 nm | 13.0 | 5380 | 788 nm | 414 | 781 nm | > 1000 µM | – | – | – | CCN1/C(=C/C=C2\CCCC(/C=C/C3=[N+](CC)c4ccccc4C3(C)C)=C2Oc2ccc(N(C)C(C)C)cc2)C(C)(C)c2ccccc21 [CypH-10] | – |
| 255,600 M^−1cm^−1 | 767 nm | 8.7 | 4285 | 787 nm | 493 | 784 nm | > 1000 µM | – | – | – | CC(C)N(C)c1ccc(OC2=C(/C=C/C3=[N+](C)c4ccccc4C3(C)C)CCC/C2=C\C=C2\N(C)c3ccccc3C2(C)C)cc1 [CypH-12] | – |
| 218,100 M^−1cm^−1 | 774 nm | 35.0 | 4204 | 796 nm | 120 | 790 nm | – | >1 mM in | – | – | CC(C)CN1/C(=C/C=C2\CCCC(/C=C/C3=[N+](CC(C)C)c4ccccc4C3(C)C)=C2Oc2ccc(N(C)C(C)C)cc2)C(C)(C)c2ccccc21.[I-] [CypH-13] | – |
| 215,800 M^−1cm^−1 | 767 nm | 5.9 | 5627 | 786 nm | 958 | 784 nm | – | >1 mM in | – | – | CCN(CC)c1ccc(OC2=C(/C=C/C3=[N+](C)c4ccccc4C3(C)C)CCC/C2=C\C=C2\N(C)c3ccccc3C2(C)C)cc1.[Cl-] [CypH-14] | – |
| 251,500 M^−1cm^−1 | 772 nm | 53.2 | 4313 | 791 nm | 81 | 786 nm | – | >1 mM in | – | – | CCCN1/C(=C/C=C2\CCCC(/C=C/C3=[N+](CCC)c4ccccc4C3(C)C)=C2Oc2ccc(N(C)C)cc2)C(C)(C)c2ccccc21.[I-] [CypH-15] | – |
| 248,000 M^−1cm^−1 | 771 nm | 26.6 | 4847 | 791 nm | 182 | 783 nm | – | >1 mM in | – | – | CCCN1/C(=C/C=C2\CCCC(/C=C/C3=[N+](CCC)c4ccccc4C3(C)C)=C2Oc2ccc(N(C)C(C)C)cc2)C(C)(C)c2ccccc21.[I-] [CypH-16] | – |
| 269,100 M^−1cm^−1 | 770 nm | 57.3 | 4468 | 791 nm | 78 | 782 nm | > 1000 µM | – | – | – | CCN(C)c1ccc(OC2=C(/C=C/C3=[N+](C(C)C)c4ccccc4C3(C)C)CCC/C2=C\C=C2\N(C(C)C)c3ccccc3C2(C)C)cc1 [CypH-17] | – |
| 257,300 M^−1cm^−1 | 772 nm | 38.2 | 4553 | 792 nm | 117 | 782 nm | – | >1 mM in | – | – | CCCN1/C(=C/C=C2\CCCC(/C=C/C3=[N+](CCC)c4ccccc4C3(C)C)=C2Oc2ccc(N(C)CC)cc2)C(C)(C)c2ccccc21.[I-] [CypH-18] | – |
| 240,900 M^−1cm^−1 | 774 nm | 68.2 | 3137 | 794 nm | 46 | 784 nm | – | >1 mM in | – | – | CC(C)CN1/C(=C/C=C2\CCCC(/C=C/C3=[N+](CC(C)C)c4ccccc4C3(C)C)=C2Oc2ccc(N(C)C)cc2)C(C)(C)c2ccccc21.[I-] [CypH-19] | – |
| 218,600 M^−1cm^−1 | 774 nm | 35.1 | 3646 | 794 nm | 104 | 789 nm | – | >1 mM in | – | – | CCN(C)c1ccc(OC2=C(/C=C/C3=[N+](CC(C)C)c4ccccc4C3(C)C)CCC/C2=C\C=C2\N(CC(C)C)c3ccccc3C2(C)C)cc1.[I-] [CypH-20] | – |
| – | – | – | – | – | – | – | – | – | – | – | CC1(C)C(/C=C/C=C/C=C/C=C2\N(CCCCS(=O)(=O)O)c3ccc4ccccc4c3C2(C)C)=[N+](CCCCS(=O)(=O)[O-])c2ccc3ccccc3c21 [indocyanine green] | 1.2% |

— US20230302159A1, “COMPOUNDS AND COMPOSITIONS FOR TUMOR DETECTION AND SURGICAL GUIDANCE” (Cornell University, priority 2020, published 2023)
